Assay results taken from patent publication US20250154180A1, “CRK-LIKE (CRKL) ADAPTOR PROTEIN INHIBITORS AND METHODS OF MAKING AND USING THE SAME” (Rutgers, The State University of New Jersey, priority 2022, published 2025).
Where two headings read alike, the source gives them in different places.

Legend:
MDA468 cell line = assay: CCK-8 cell viability, MDA468; type: cell-based; conditions: 1 uM, 5 uM, 10 uM; 48 hours
Experimental: (§1) In this example, activities of NC5, Compound III, and the known chemotherapeutic, Sorafenib, were evaluated in HepG2, SKHep1, Huh7, and MDA468 cell lines. Cells from each cell line were collected and seeded at 5,000 cells/well in 96-well plates. The cells were incubated for 24 hours before the addition of either DMSO control or drug at various concentrations. After an additional 48 hours of incubation, 3 μL of CCK-8 was added to every well and incubated at 37° C. for 3 hours. Absorbance was measured at 460 nm in a plate reader. Cells from each cell line were treated with NC5 and Compound III at various concentrations (1 uM, 5 uM, 10 uM). The related absorbance was normalized and plotted as line graphs. p-values were determined through two tails student t-tests (*=p<0.5, **=p<0.01, ***=p<0.001).

[1] = test system: PBNK cells killing activity towards SK-Hep1; assay: Cr51 release assay, PBNK killing of SK-Hep1; type: cell-based; conditions: 1 uM overnight
Experimental: (§2) PBNK cells were incubated with 1 uM NC5 or Compound III overnight, then cells were harvested for Cr51 release assay to check cell cytotoxicity. […] The star symbol indicates the significance of vehicle control vs. NC5 of the indicated E:T ratios. *p<0.05, **p<0.01, n=3.

Thermodynamic solubility = type: physicochemical; conditions: thermodynamic from solid
Experimental: In this example, solubility measurement assays were performed using a phosphate buffer (also referred to as “PB”) system and a water system to evaluate thermodynamic solubility. The PB system was at a pH of 7.4 to mimic in vivo environments. For the PB system, the values were determined to be NC5: Thermodynamic Solubility pH=7.4<0.42 μg/mL; Compound III: Thermodynamic Solubility pH=7.4<0.48 μg/mL; and Compound I: Thermodynamic Solubility pH=7.4<0.48 μg/mL. Results for the water assay were as follows: NC5: Thermodynamic Solubility Water<0.42 μg/mL; Compound III: Thermodynamic Solubility Water<0.48 μg/mL; and Compound I: Thermodynamic Solubility Water<0.48 μg/mL.

4T1 breast tumor = assay: 4T1-Luc orthotopic syngeneic breast tumor model; type: in vivo, Balb/c mice; conditions: 5.0 μg/g oral gavage
Excerpt: Syngeneic orthotopic 4T1 breast tumor-bearing mouse model was established by inoculating 5×10^4 4T1-Luc cells mixed with Matrigel were into the left inguinal fat pad of Balb/c mice from Jackson Laboratories. This orthotopic syngeneic breast tumor model is a tool for preclinical testing of anti-cancer drugs or immunotherapy that require an intact immune system to elicit activity.
(§3) To test the effects of the disclosed compounds on the xenograft mouse models, the HCC-Sk-Hep1 cell line xenograft model in NSG mice and 4T1-Luc orthotopic syngeneic breast tumor model in Balb/c mice was used. After confirming the palpable tumor in NSG or Balb/c mice. […] Compound III is referred to as “NC5-140-1” and Compound I is referred to as “NC5-140-2” in FIGS. 11A-11C.

[2] = test system: PBNK cells killing activity towards MDA-MB-231; assay: Cr51 release assay, PBNK killing of MDA-MB-231; type: cell-based; conditions: 1 uM overnight
Experimental: as §2

HepG2 cell line = assay: CCK-8 cell viability, HepG2; type: cell-based; conditions: 1 uM, 5 uM, 10 uM; 48 hours
Experimental: as §1

BXPC3 cells = assay: XTT cell viability, BXPC3; type: cell-based; conditions: 24 and 48 hours
Experimental: (§4) FIGS. 8A-8C show results using MDA-MB-231 cells (FIG. 8A) or BXPC3 cells (FIG. 8B), wherein the cells were treated with 5 μM of NC5, Compound III (referred to as “NC5-140-1” in FIGS. 8A-8C), and Compound I (referred to as “NC5-140-2” in FIGS. 8A-8C) for 24-48 hours, wherein the XTT assay was used to determine cell viability. The symbol indicates the significance of NC5 vs. Compounds I and/or III; *p<0.05. Data represent mean±SEM.
(§5) Compound embodiments, compound III and compound I, were also made and evaluated. TNBC cells and PDAC cells were treated with a serial dose of original NC5 and modified NC5 derivatives for 24 and 48 hours. The cell viability will be measured by XTT assay. […] Compound III is referred to as “NC5-140-1” and Compound I is referred to as “NC5-140-2” in FIGS. 8A-8C.

AML cell line (MoLM-13) = assay: CCK-8 cell viability, MoLM-13; type: cell-based, human; conditions: 1 uM, 5 uM, 10 uM; 48 hours
Experimental: In this example, activities of NC5, Compound III, and the known chemotherapeutic, Cytarabine, were evaluated in the AML cell line (MoLM-13). MoLM-13 cells were collected and seeded at 5,000 cells/well in 96-well plates. The cells were incubated for 24 hours before the addition of either DMSO control or drug at various concentrations. After an additional 48 hours of incubation, 3 μL of CCK-8 was added to every well and incubated at 37° C. for 3 hours. Absorbance was measured at 460 nm in a plate reader. […] The related absorbance was normalized and plotted as line graphs. p-values were determined through two tails student t-tests (*=p<0.5, **=p<0.01, ***=p<0.001).

Sk-Hep1 cells = assay: Growth inhibition of Sk-Hep1 cells (cell culture images); type: cell-based; conditions: 5 μM, 24 hours
[3] = test system: pCrkL (T207) in Sk-Hep1 cells; assay: Flow cytometry of H2O2-induced pCrkL, Sk-Hep1; type: cell-based; conditions: 50 uM H2O2 1 hour, then 10 uM compound 24 hours
Experimental: In this example, Sk-Hep1 cells were pretreated with 50 uM H2O2 for 1 hour to induce activation of pCrkL and were then incubated with 10 uM NC5 or Compound III for 24 hours. pCrkL (T207) expression was determined by flow cytometry.

Sk-Hep1 tumor = assay: HCC Sk-Hep1 xenograft model; type: in vivo, NSG mice; conditions: four-group study, 5.0 μg/g oral gavage
Excerpt: To further test whether the tumor growth inhibition effect of NC5 applied to other solid tumors, the HCC-Sk-Hep1cell line and PDAC-BXPC3 cell line xenograft models were used. Subcutaneous injection of 1.5×10^6 SK-Hep1 or BXPC3 cells in NSG mice, Six-ten days after tumor cell injection, the palpable tumor in NSG mice was confirmed.
as §3

Huh7 cell line = assay: CCK-8 cell viability, Huh7; type: cell-based; conditions: 1 uM, 5 uM, 10 uM; 48 hours
Experimental: as §1

SKHep1 cell line = assay: CCK-8 cell viability, SKHep1; type: cell-based; conditions: 1 uM, 5 uM, 10 uM; 48 hours
Experimental: as §1

MDA-MB-231 cells = assay: XTT cell viability, MDA-MB-231; type: cell-based; conditions: 24 and 48 hours
Experimental: as §4, §5

**Q.** With `CC(C)=CCc1c2c(c3occ(-c4ccc5c(c4)OS(=O)(=O)O5)c(=O)c3c1O)C=CC(C)(C)O2` [Compound III] as the compound, how does the “cell viability (CCK-8)” value (MDA468 cell line) read?
**A.** decreased cell viability significantly

**Q.** And the “PBNK cells killing activity (Cr51 release)” value [1]?
**A.** increased PBNK cells killing activity

**Q.** And the solubility thermodynamic (Thermodynamic solubility; aqueous buffer, phosphate buffer (PB) system, pH 7.4, read-out: Thermodynamic Solubility pH=7.4)?
**A.** < 0.48 µg/mL

**Q.** And the solubility thermodynamic (Thermodynamic solubility; water system, read-out: Thermodynamic Solubility Water)?
**A.** < 0.48 µg/mL

**Q.** And the tumor growth (4T1 breast tumor)?
**A.** steady growth inhibition

**Q.** What about the median survival (4T1 breast tumor; vehicle 25 days) of the same compound?
**A.** 39.5 days

**Q.** What about the “PBNK cells killing activity (Cr51 release)” value [2] of the same compound?
**A.** increased PBNK cells killing activity

**Q.** And the “cell viability (CCK-8)” value (HepG2 cell line)?
**A.** decreased cell viability significantly

**Q.** And the “toxic effect compared with NC5 (XTT viability)” value (BXPC3 cells)?
**A.** better toxic effect than NC5

**Q.** And the “cell viability (CCK-8)” value (AML cell line (MoLM-13))?
**A.** decrease cell viability significantly

**Q.** And the “toxic effect compared with NC5 (growth inhibition)” value (Sk-Hep1 cells)?
**A.** better toxic effect than NC5

**Q.** And the “H2O2 induced pCrkL protein levels” value [3]?
**A.** inhibited H2O2 induced pCrkL protein levels

**Q.** And the tumor growth (Sk-Hep1 tumor)?
**A.** inhibit tumor growth

**Q.** What about the median survival (Sk-Hep1 tumor; vehicle 26 days) of the same compound?
**A.** 34.5 days

**Q.** And the “cell viability (CCK-8)” value (Huh7 cell line)?
**A.** decreased cell viability significantly

**Q.** And the “cell viability (CCK-8)” value (SKHep1 cell line)?
**A.** decreased cell viability significantly

**Q.** And the “toxic effect compared with NC5 (XTT viability)” value (MDA-MB-231 cells)?
**A.** comparable toxic effect as NC5
